{"source": "patent US20070082865A1", "about": "“Compositions and methods for treatment of airway hypersecretion” (Washington University, priority 2005, published 2007)", "key": {"[1]": {"system": "airway epithelium (ciliated, Clara and goblet cells)", "experiment": "Quantitative morphometry of airway epithelial cell types (β-tubulin, CCSP, MUC5AC immunostaining) after SeV inoculation", "format": "in vivo, C57BL/6J mice", "excerpt": "Values represent mean+SEM, and a significant difference from SeV-UV control is indicated by (*). Methodology is further described in Example 2.\nFIG. 24 is a bar graph showing quantitative analysis of β-tubulin (ciliated cells), CCSP (Clara cells), and MUC5AC (goblet cells) immunostaining in airways of mice infected with SeV and treated with slL-13 receptor antagonist (slL-13Ra2-Fc) or control IgG from on days 12, 14, 17, and 20 after inoculation. Bars=20 μm. A significant difference from corresponding IgG treatment is indicated by (*). Methodology is further described in Example 4.\n(§1) C57BL/6J and Balb/cJ mice were obtained from The Jackson Laboratory (Bar Harbor, Me.) and were maintained and monitored under pathogen-free conditions for study at 7 wk of age as described previously (Walter et al. (2001); Walter et al. (2002); Tyner et al. (2006) J. Clin. Invest. 116:309-321). SeV (Fushimi Strain 52) was grown in embryonated hen eggs and harvested to provide a viral stock solution such that 5000 EID50 (50% egg infectious dose) was equivalent to 2×10^5 PFU (plaque-forming units). This inoculum or an equivalent amount of UV-inactivated SeV was delivered intranasally in 30 μl PBS under ketamine/xylazine anesthesia. Under these conditions, viral tissue levels are maximal at days 3-5 after infection and viral clearance is complete by day 12 (Walter et al. (2001); Walter et al. (2002); Tyner et al. (2006) J. Clin. Invest. 116:309-321). […] For IL-13 blockade, mice were given subcutaneous injections of soluble murine IL-13Rα2 fused to Fc (slL Example 2: EGFR inhibition decreases aspects of epithelial remodeling 13Rα2-Fc; obtained from Deborah Donaldson, Wyeth Ayerst; 200 μg/mouse in PBS) or control Fc on days 12, 14, 17, and 20 post-infection (Donaldson (1998) J. Immunol. 161, 2317).\nMouse lung was fixed by intraracheal instillation of 4% paraformaldehyde at 25-cm H2O pressure. After overnight fixation at 4° C., tissue was embedded in paraffin, and cut into 3-μm thick sections for hematoxylin/eosin or immunostaining.\nFor immunostaining, tissue sections were deparaffinized, rehydrated in graded alcohol and encircled with a hydrophobic film (ImmEdge PEN, Vector laboratories, Burlingame, Calif.). […] EGFR was detected using rabbit-antihuman EGFR antibody SC-03 from Santa Cruz Biotechnology (Santa Cruz, Calif.) directed against amino acid residues 1005-1016 that are identical to corresponding sequence in murine EGFR. Phosphorylated EGFR (p-EGFR) was detected using rabbit anti-phospho-EGFR (Tyr845) antibody #2231 from Cell Signaling Technology Inc. (Beverly, Mass.) directed against phosphorylated Tyr^845. […]"}, "[2]": {"system": "EGFR signaling (Akt activation)", "experiment": "Western blot of lung lysates from SeV-inoculated mice treated with EKB-569", "format": "in vivo, C57BL/6J mice", "description": "Blotting was with the indicated antibodies. Methodology is further described in Examples 1 and 2.\nas §1"}, "[3]": {"system": "EGFR-dependent signals (p-EGFR, p-Akt, p-ERK1/2)", "experiment": "Western blot of EGF-stimulated mTEC cultures with or without inhibitor", "format": "cell-based, mouse", "conditions": "basic medium then EGF stimulation, inhibitor at maximal effective concentration"}, "[4]": {"system": "ciliated epithelial cells in mouse tracheal epithelial cell (mTEC) cultures", "experiment": "Ciliated cell survival in mTEC cultures (β-tubulin staining cells as % of total Hoechst-staining cells)", "format": "cell-based", "conditions": "treatment for 7 days"}, "[5]": {"system": "mouse tracheal epithelial cell (mTEC) cultures", "experiment": "Apoptosis in mTEC cultures (active caspase 3, TUNEL)", "format": "cell-based", "conditions": "mTEC with EGFR signaling blockade plus z-VAD-fmk (100 μM)", "description": "Bar=20 μm. Methodology is further described in Example 3.\nFIGS. 13A and 13B are bar graphs showing quantitative analysis of FIG. 12 for activate caspase-3 staining cells (expressed as % of total Hoechst staining cells) using treatment conditions from FIG. 12 as well as PD15305 plus zVAD-fmk (100 μM). Values represent mean+SEM, and a significant difference from vehicle alone is indicated by (*). Methodology is further described in Example 3.\nAIRWAY EPITHELIAL CELL CULTURE AND TREATMENT.\nIMMUNOCYTOCHEMISTRY. Cultured cells were washed twice with PBS at 4° C., fixed in 4% paraformaldehyde for 10 min. at 25° C., washed with PBS, and permeabilized with ethanol:acetic acid (2:1, vol/vol) for 5 min at −20° C. for TUNEL reaction or with 0.2% Triton-X for 5 min at 25° C. for immunostaining. Permeabilized cells were then washed with PBS and subjected to the TUNEL reaction (Intergen, Purchase, N.Y.) or blocked with 2% fish gel 1 h at 25° C. and incubated with rabbit anti-active caspase 3 (BD Biosciences, San Diego, Calif.), rabbit anti-EGFR (Santa Cruz Biotechnology, Santa Cruz, Calif.), rabbit anti-p-EGFR (Cell Signaling Technology, Inc., Beverly, Mass.), mouse anti-β-tubulin-IV or rabbit anti-β-tubulin (Sigma, St. Louis, Mo.) antibodies overnight at 4° C. Primary antibody binding was detected with goat anti-mouse or donkey anti-rabbit FITC or CY3 secondary antibody. […]"}, "[6]": {"conditions": "SeV, EGFR inhibitor daily post-infection days 10-21, read at day 21"}}}
{"compound": "CCOc1cc2ncc(C#N)c(Nc3ccc(F)c(Cl)c3)c2cc1NC(=O)/C=C/CN(C)C", "note": "[EKB-569]", "values": [{"measurement": "Clara cell decreases", "setting": "[1]; [6]", "value": "complete blockade"}, {"measurement": "ciliated cell increases", "setting": "[1]; [6]", "value": "complete blockade"}, {"measurement": "goblet cell metaplasia", "setting": "[1]; [6]", "value": "partial but significant inhibition"}, {"measurement": "total number of airway epithelial cells (cytokeratin-staining cells)", "setting": "[1]; post-inoculation day 21, vehicle 133±3", "value": "137±5", "unit": "per mm basement membrane"}, {"measurement": "Akt activation in whole mouse lung", "setting": "[2]; 20 mg/kg by gavage daily, post-infection days 10-21, day 21 post-infection", "value": "full inhibition"}, {"measurement": "EGFR signaling in vivo", "setting": "[2]; oral, each day from post-inoculation day 10 through day 21", "value": "blocked EGFR signaling"}]}
{"compound": "COc1cccc(-c2cc(=O)c3ccccc3o2)c1N", "note": "[PD98059]", "values": [{"measurement": "phosphorylation of ERK1/2", "setting": "[3]", "value": "blocked"}, {"measurement": "loss of ciliated epithelial cells", "setting": "[4]", "value": "only treatment with LY294002 caused a similar loss"}]}
{"compound": "COc1cc2ncnc(Nc3cccc(Br)c3)c2cc1OC", "note": "[PD153035]", "values": [{"measurement": "downstream EGFR signals", "setting": "[3]", "value": "blocked all downstream signals"}, {"measurement": "loss of ciliated epithelial cells", "setting": "[4]", "value": "dose-dependent loss of ciliated cells"}]}
{"compound": "z-Val-Ala-Asp fluoromethylketone [z-VAD-fmk]", "values": [{"measurement": "TUNEL-positive cells undergoing apoptosis", "setting": "[5]", "value": "blocked"}]}
